Patent US8022055B2, “Betulinic acid derivatives” (Dabur Pharma Limited, priority 2005, dated 2011)

Experiments:
[1] = system: A549; assay: three day MTT cytotoxicity assay, A549; assay type: cell-based, human; settings: for Specific Index (SI) for cell lines A549: ratio of IC50 of NIH 3T3 cells to A549
Experimental: (§1) A number of compounds listed in Table-3 were tested for cytotoxicity against prostate, lung, laryngeal, pancreas, breast, colon and ovarian cancer, leukemia and lymphoma, human tumor cell lines. Briefly, a three day MTT cytotoxicity assay was performed, which is based on the principle of uptake of MTT (3-(4,5-dimethylthiazol-2-yl)-2,5-diphenyl tetrazolium bromide), a tetrazolium salt, by the metabolically active cells where it is metabolized by active mitochondria into a blue colored formazan product that is read spectrophotometrically. MIT was dissolved in phosphate buffered saline with a pH of 7.4 to obtain an MIT concentration of 5 mg/ml; the resulting mixture was filtered through a 0.22-micron filter to sterilize and remove a small amount of insoluble residue. For each type of tumor cell, 10,000 to 15,000 cells were seeded in a 96-well culture plate and incubated with the individual betulinic acid derivatives in a CO2 incubator for a total of 72 hours. Control cells not treated with the betulinic acid derivatives were similarly incubated. The assay was terminated by adding 100 μg (20 μl) of MIT to each well then incubating for additional one hour, and finally adding 50 μl of 10% SDS-0.01N HCl to each well to lyse the cells and dissolve formazan. After incubating for one hour, the plate was read spectrophotometrically at 540 nm and the percentage of cytotoxicity calculated using the following formula: Cytotoxicity percentage=100×[1−(X/R1)], where X=(absorbance of treated sample at 540 nm)−(absorbance of blank at 540 nm) R1=absorbance of control sample at 540 nm. The IC50 Values of the cytotoxicity defined as the concentration at which 50% of the cells are killed in vitro was calculated for each cell line treated with each of the betulinic acid derivatives.

[2] = system: HBL100; assay: three day MTT cytotoxicity assay, HBL100; assay type: cell-based, human; settings: for Specific Index (SI) for cell lines HBL100: ratio of IC50 of NIH 3T3 cells to HBL100
Experimental: as §1

[3] = system: K562; assay: three day MTT cytotoxicity assay, K562; assay type: cell-based, human; settings: for Specific Index (SI) for cell lines K562: ratio of IC50 of NIH 3T3 cells to K562
Experimental: as §1

[4] = system: DU145; assay: three day MTT cytotoxicity assay, DU145; assay type: cell-based, human; settings: for IC50 for cell lines DU145: DU145, 72 hours
Experimental: as §1

[5] = system: PA1; assay: three day MTT cytotoxicity assay, PA1; assay type: cell-based, human; settings: for IC50 for cell lines PA1: PA1, 72 hours
Experimental: (§2) Briefly, a three day MTT cytotoxicity assay was performed, which is based on the principle of uptake of MTT (3-(4,5-dimethylthiazol-2-yl)-2,5-diphenyl tetrazolium bromide), a tetrazolium salt, by the metabolically active cells where it is metabolized by active mitochondria into a blue colored formazan product that is read spectrophotometrically. MIT was dissolved in phosphate buffered saline with a pH of 7.4 to obtain an MIT concentration of 5 mg/ml; the resulting mixture was filtered through a 0.22-micron filter to sterilize and remove a small amount of insoluble residue. For each type of tumor cell, 10,000 to 15,000 cells were seeded in a 96-well culture plate and incubated with the individual betulinic acid derivatives in a CO2 incubator for a total of 72 hours. Control cells not treated with the betulinic acid derivatives were similarly incubated. The assay was terminated by adding 100 μg (20 μl) of MIT to each well then incubating for additional one hour, and finally adding 50 μl of 10% SDS-0.01N HCl to each well to lyse the cells and dissolve formazan. After incubating for one hour, the plate was read spectrophotometrically at 540 nm and the percentage of cytotoxicity calculated using the following formula: Cytotoxicity percentage=100×[1−(X/R1)], where X=(absorbance of treated sample at 540 nm)−(absorbance of blank at 540 nm) R1=absorbance of control sample at 540 nm. The IC50 Values of the cytotoxicity defined as the concentration at which 50% of the cells are killed in vitro was calculated for each cell line treated with each of the betulinic acid derivatives.

[6] = system: NIH 3T3 cells; assay: NIH3T3 cytotoxicity test (72 h MTT assay); assay type: cell-based; settings: NIH3T3, 72 hours
Experimental: The cytotoxic effect of chemicals upon NIH 3T3 cells in culture is measured by cell metabolism determination using the previously described MIT assay. Healthy NIH 3T3 cells (an established cell-line), when maintained in culture continuously divide and multiply over time. The basis of this test is that a cytotoxic chemical (regardless of site or mechanism of action) will interfere with this process and, thus, result in a reduction of the growth rate as reflected by cell number. The degree of inhibition of growth, related to the concentration of the test compound, provides an indication of toxicity.
The NIH 3T3 cells are maintained in culture and exposed to test compounds over a range of concentrations and the number of viable cells determined after 72 hours exposure by MIT assay. The number of cells in the presence of test chemicals are compared to that observed in control cultures and the percent inhibition of growth calculated. The IC50 concentration (i.e. the concentration producing 50% inhibition of growth) is determined and expressed as μg/ml. A ratio of IC50 of NIH 3T3 cells to tumor cells is an indicator of predicted toxicity of the molecule and is represented as “Safety Index”. The higher the value, the better is the predicted safety of the molecule.

[7] = system: Miapaca; assay: three day MTT cytotoxicity assay, Miapaca; assay type: cell-based, human; settings: for Specific Index (SI) for cell lines Miapaca: ratio of IC50 of NIH 3T3 cells to Miapaca
Experimental: as §1

[8] = system: SW620; assay: three day MTT cytotoxicity assay, SW620; assay type: cell-based, human; settings: for IC50 for cell lines SW620: SW620, 72 hours
Experimental: as §2

SMILES	IC50 for cell lines A549 ([1]; A549, 72 hours, MTT)	IC50 for cell lines HBL100 ([2]; HBL100, 72 hours, MTT)	Specific Index (SI) for cell lines HBL100 [2]	IC50 for cell lines K562 ([3]; K562, 72 hours, MTT)	Specific Index (SI) for cell lines K562 [3]	IC50 for cell lines DU145 [4]	IC50 for cell lines PA1 [5]	IC50 for cell lines NIH3T3 [6]	IC50 for cell lines Miapaca ([7]; Miapaca, 72 hours, MTT)	Specific Index (SI) for cell lines Miapaca [7]	IC50 for cell lines SW620 [8]	Specific Index (SI) for cell lines A549 [1]	IC50 ([1]; Homo sapiens, A549, 72 hours, MTT, read-out: IC50 for cell lines A549)	IC50 ([2]; Homo sapiens, HBL-100, HBL100, 72 hours, MTT, read-out: IC50 for cell lines HBL100)	IC50 ([3]; Homo sapiens, K562, 72 hours, MTT, read-out: IC50 for cell lines K562)	IC50 ([4]; Homo sapiens, DU-145, DU145, 72 hours, read-out: IC50 for cell lines DU145)	IC50 ([5]; Homo sapiens, PA-1, PA1, 72 hours, read-out: IC50 for cell lines PA1)	IC50 ([6]; Mus musculus, read-out: IC50 for cell lines NIH3T3)	IC50 ([7]; Homo sapiens, MIA PaCa-2, Miapaca, 72 hours, MTT, read-out: IC50 for cell lines Miapaca)	IC50 ([8]; Homo sapiens, SW-620, SW620, 72 hours, read-out: IC50 for cell lines SW620)
C=C(C)[C@@H]1CC[C@]2(C(=O)NCC(=O)O)CC[C@]3(C)[C@H](CC[C@@H]4[C@@]5(C)Cc6c([nH]c7ccccc67)C(C)(C)[C@@H]5CC[C@]43C)[C@@H]12 [Compound 22, 28-N-Glycine-2,3-didehydroindolo[2′,3′:2,3]betulinamide]	3.53 ± 0.82 µg/mL	>20 µg/mL	<0.034	11.92 ± 1.37 µg/mL	0.057	7.0 µg/mL	3.0 µg/mL	0.68 ± 0.003 µg/mL	0.67 ± 0.03 µg/mL	1.015	8.7 µg/mL									
C=C(C)[C@@H]1CC[C@]2(C(=O)O)CC[C@]3(C)[C@H](CC[C@@H]4[C@@]5(C)Cc6c([nH]c7c(Cl)cccc67)C(C)(C)[C@@H]5CC[C@]43C)[C@@H]12 [Compound 9, 7′-Chloro-2,3-didehydroindolo[2′,′:2,3]betulinic acid]	8.7 ± 0.19 µg/mL	11.8 ± 0.35 µg/mL	1	9.26 ± 1.6 µg/mL	1.274	11.66 µg/mL	6.39 µg/mL	11.8 ± 0.19 µg/mL	11.6 ± 0.49 µg/mL	1.017	2.008 µg/mL	1.356								
CC(C)[C@@H]1CC[C@]2(C(=O)O)CC[C@]3(C)[C@H](CC[C@@H]4[C@@]5(C)Cc6c([nH]c7ccc(Cl)cc67)C(C)(C)[C@@H]5CC[C@]43C)[C@@H]12 [Compound 6, 5′-Chloro-2,3-didehydro-20,29-dihydroindolo[2′,′:2,3]betulinic acid]	8.8 ± 0.74 µg/mL	>20 µg/mL	<0.951	>20 µg/mL	<0.952	6.5 µg/mL	6.6 µg/mL	19.03 ± 0.21 µg/mL	15.19 ± 1.06 µg/mL	1.252	5.9 µg/mL	2.163								
CC(C)[C@@H]1CC[C@]2(C(=O)OCc3ccccc3)CC[C@]3(C)C(CCC4[C@@]5(C)Cc6c([nH]c7ccccc67)C(C)(C)C5CC[C@]43C)C12 (stereo partly shown) [Compound 16, 28-O-Benzyl-2,3-didehydro-20,29-dihydro[2′,3′:2,3]indolobetulinate]	>20 µg/mL	>20 µg/mL		>20 µg/mL		>20 µg/mL	>20 µg/mL	>20 µg/mL	>20 µg/mL		>20 µg/mL									
C=C(C)[C@@H]1CC[C@]2(C(=O)NCC(=O)O)CC[C@]3(C)C(CCC4[C@@]5(C)Cc6c([nH]c7ccc(Cl)cc67)C(C)(C)C5CC[C@]43C)C12 (stereo partly shown) [Compound 24, 28-N-Glycine-5′-chloro-2,3-didehydroindolo[2′,3′:2,3]betulinamide]	12.4 ± 1.78 µg/mL	16.5 ± 0.6 µg/mL	0.679	>20 µg/mL	<0.56	10.32 µg/mL	6.66 µg/mL	11.2 ± 0.63 µg/mL	10.7 ± 0.63 µg/mL	1.047	10.42 µg/mL	0.903								
C=C(C)[C@@H]1CC[C@]2(C(=O)O)CC[C@]3(C)C(CCC4[C@@]5(C)Cc6c(oc7ccccc67)C(C)(C)C5CC[C@]43C)C12 (stereo partly shown) [Compound 11, 2,3-Didehydrobenzfurano[2′,3′:2,3]betulinic acid]	>20 µg/mL	>20 µg/mL	<0.952	>20 µg/mL	<0.952	>20 µg/mL	>20 µg/mL	19.03 ± 0.79 µg/mL	>20 µg/mL	<0.952	>20 µg/mL	<0.952								
C=C(C)[C@@H]1CC[C@]2(C(=O)O)CC[C@]3(C)[C@H](CC[C@@H]4[C@@]5(C)Cc6c([nH]c7ccccc67)C(C)(C)[C@@H]5CC[C@]43C)[C@@H]12 [Compound 1, 2,3-Didehydroindolo[2′,′:2,3]betulinic acid]	7.6 ± 0.57 µg/mL	10.3 ± 0.9 µg/mL	0.669	10.05 ± 0.61 µg/mL	0.68	8.86 µg/mL	6.01 µg/mL	6.9 ± 0.76 µg/mL	6.7 ± 0.59 µg/mL	1.029	5.151 µg/mL	0.907								
C=CCOC(=O)[C@]12CC[C@@H](C(=C)C)C1C1CCC3[C@@]4(C)Cc5c([nH]c6ccccc56)C(C)(C)C4CC[C@@]3(C)[C@]1(C)CC2 (stereo partly shown) [Compound 18, 28-O-Allyl-2,3-didehydroindolo[2′,3′:2,3]betulinate]	>20 µg/mL	>20 µg/mL		>20 µg/mL		>20 µg/mL	>20 µg/mL	>20 µg/mL	>20 µg/mL		>20 µg/mL									
C=C(C)[C@@H]1CC[C@]2(C(=O)NCC(=O)OC)CC[C@]3(C)C(CCC4[C@@]5(C)Cc6c([nH]c7ccccc67)C(C)(C)C5CC[C@]43C)C12 (stereo partly shown) [Compound 21, 28-N-Methylglycinate-2,3-didehydroindolo[2′,3′:2,3]betulinamide]													> 20 µg/mL	> 20 µg/mL	> 20 µg/mL	> 20 µg/mL	> 20 µg/mL	> 20 µg/mL	> 20 µg/mL	> 20 µg/mL
C=C(C)[C@@H]1CC[C@]2(C(=O)O)CC[C@]3(C)[C@H](CC[C@@H]4[C@@]5(C)Cc6c([nH]c7ccc(OC)cc67)C(C)(C)[C@@H]5CC[C@]43C)[C@@H]12 [Compound 10, 2,3-Didehydro-5′-methoxyindolo[2′,′:2,3]betulinic acid]	8.2 ± 0.14 µg/mL	12.8 ± 0.39 µg/mL	0.586	>20 µg/mL	<0.38	5.75 µg/mL	5.8 µg/mL	7.5 ± 0.48 µg/mL	6.4 ± 0.44 µg/mL	1.172	8.4 µg/mL	0.915								
C=C(C)[C@@H]1CC[C@]2(C(=O)Nc3ccccn3)CC[C@]3(C)C(CCC4[C@@]5(C)Cc6c([nH]c7ccc(Cl)cc67)C(C)(C)C5CC[C@]43C)C12 (stereo partly shown) [Compound 25, 28-N-(2″-pyridine)-5′-chloro-2,3-didehydroindolo[2′,′:2,3]betulinamide]	>20 µg/mL	>20 µg/mL		>20 µg/mL		>20 µg/mL	>20 µg/mL	>20 µg/mL	>20 µg/mL		>20 µg/mL									
